The record followed here is patent publication US12453708B2, “Aminonaphthoquinone compounds for treatment and/or prevention of fibrosis diseases” (CALGENT BIOTECHNOLOGY CO., LTD., priority 2015, dated 2025).

For the experiment, the system named is thrombin-induced CTGF expression in WI-38 cells. Description: thrombin-induced CTGF expression in WI-38 cells (Western blot). In kind it is cell-based, human. Conditions: WI-38 lung fibroblasts, 0.3, 1, 3 or 10 μM for 30 min before and during 2 h thrombin (1 U/ml). The protocol:
FIGS. 3 (A) and (B) show the effect of L056 on thrombin-induced CTGF expression in WI-38 cells. WI-38 lung fibroblasts were incubated with different concentrations of L056 (0.3, 1, 3 or 10 μM) for 30 min before and during incubation for 2 h with thrombin (1 U/ml). […] (A), Western blot plot; (B), Quantitative assay of Western blot. WI-38 cells, a normal human embryonic lung fibroblast cell line, were obtained from American Type Culture Collection (Manassas, VA). Cells were grown in MEM nutrient mixture, containing 10% FCS, 2 mM L-glutamine, 0.1 mM NEAA, 1 mM sodium pyruvate, 50 U/ml penicillin G, and 100 µg/ml streptomycin, in a humidified 37° C. incubator with 5% CO2 Cells were used between passages 18 and 30 for all experiments. After reaching confluence, cells were seeded onto 6-cm dishes for immunoblotting. Western blot analyses were performed as described previously (Chen B C, Chang Y S, Kang J C, Hsu M J, Sheu J R, Chen T L, et al. Peptidoglycan induces nuclear factor-kappaB activation and cyclooxygenase-2 expression via Ras, Raf-1, and ERK in RAW 264.7 macrophages. J Biol Chem 2004; 279:20889-97). […] The immunoreactivity was detected using enhanced chemiluminescence (ECL) following the manufacturer's instructions. Quantitative data were obtained using a computing densitometer with scientific imaging systems (Kodak, Rochester, NY). […]

Take `O=C(Nc1ccncc1)c1ccc(CNC2=C(Cl)C(=O)c3ccccc3C2=O)cc1` [Example L056, 4-(((3-chloro-1,4-dioxo-1,4-dihydronaphthalen-2-yl)amino)methyl)-N-(pyridin-4-yl)benzamide]: the “thrombin-induced CTGF production/expression” value is “significantly inhibited”. Moreover, for the setting “listed as MPTOL0560”, the “thrombin-induced CTGF production/expression” value was “inhibited”.
